Key:
[1] = test system: Tyrosine-protein kinase ABL1 (Homo sapiens), P00519 [Q252H]; assay: Inhibition of human truncated ABL Q252H mutant expressed in baculovirus assessed as substrate phosphorylation using fluorescence-labelled peptides as substrate at 0.06 uM after 90 mins by microfluidic peptide phosphorylation assay
[2] = molecular target: Serine/threonine-protein kinase MARK2 (Homo sapiens) (UniProt Q7KZI7); assay: Inhibition of human full length MARK2 expressed in baculovirus assessed as substrate phosphorylation using fluorescence-labelled peptides as substrate at 0.06 uM after 90 mins by microfluidic peptide phosphorylation assay
Serine/threonine-protein kinase MARK2 (Homo sapiens), sequence (Q7KZI7 whole entry): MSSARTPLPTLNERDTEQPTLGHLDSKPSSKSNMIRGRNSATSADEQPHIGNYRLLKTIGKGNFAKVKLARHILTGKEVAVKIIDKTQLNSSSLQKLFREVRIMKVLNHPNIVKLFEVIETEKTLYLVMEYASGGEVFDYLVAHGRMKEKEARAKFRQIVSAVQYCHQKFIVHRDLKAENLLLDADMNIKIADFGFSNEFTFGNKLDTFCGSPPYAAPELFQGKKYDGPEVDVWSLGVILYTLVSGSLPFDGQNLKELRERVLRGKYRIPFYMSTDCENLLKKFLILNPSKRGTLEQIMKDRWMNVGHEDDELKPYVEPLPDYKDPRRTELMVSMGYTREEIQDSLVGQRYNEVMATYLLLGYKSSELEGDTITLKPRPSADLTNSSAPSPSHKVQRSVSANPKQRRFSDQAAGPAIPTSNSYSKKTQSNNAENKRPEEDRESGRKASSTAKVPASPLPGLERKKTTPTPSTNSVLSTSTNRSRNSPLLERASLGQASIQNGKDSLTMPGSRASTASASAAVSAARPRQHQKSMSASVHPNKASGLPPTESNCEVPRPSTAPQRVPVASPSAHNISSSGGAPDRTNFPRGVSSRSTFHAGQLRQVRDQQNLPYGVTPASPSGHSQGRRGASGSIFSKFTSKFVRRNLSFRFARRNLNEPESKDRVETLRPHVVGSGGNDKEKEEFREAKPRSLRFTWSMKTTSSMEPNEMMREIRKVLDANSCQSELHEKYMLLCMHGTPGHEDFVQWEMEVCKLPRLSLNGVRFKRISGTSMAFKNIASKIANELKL

[3] = molecular target: T1, cGMP-dependent protein kinase 1 (Homo sapiens) (UniProt Q13976); assay: Inhibition of human full length PKG-1a expressed in baculovirus assessed as substrate phosphorylation using fluorescence-labelled peptides as substrate at 420 uM after 90 mins by microfluidic peptide phosphorylation assay
T1 sequence (whole entry): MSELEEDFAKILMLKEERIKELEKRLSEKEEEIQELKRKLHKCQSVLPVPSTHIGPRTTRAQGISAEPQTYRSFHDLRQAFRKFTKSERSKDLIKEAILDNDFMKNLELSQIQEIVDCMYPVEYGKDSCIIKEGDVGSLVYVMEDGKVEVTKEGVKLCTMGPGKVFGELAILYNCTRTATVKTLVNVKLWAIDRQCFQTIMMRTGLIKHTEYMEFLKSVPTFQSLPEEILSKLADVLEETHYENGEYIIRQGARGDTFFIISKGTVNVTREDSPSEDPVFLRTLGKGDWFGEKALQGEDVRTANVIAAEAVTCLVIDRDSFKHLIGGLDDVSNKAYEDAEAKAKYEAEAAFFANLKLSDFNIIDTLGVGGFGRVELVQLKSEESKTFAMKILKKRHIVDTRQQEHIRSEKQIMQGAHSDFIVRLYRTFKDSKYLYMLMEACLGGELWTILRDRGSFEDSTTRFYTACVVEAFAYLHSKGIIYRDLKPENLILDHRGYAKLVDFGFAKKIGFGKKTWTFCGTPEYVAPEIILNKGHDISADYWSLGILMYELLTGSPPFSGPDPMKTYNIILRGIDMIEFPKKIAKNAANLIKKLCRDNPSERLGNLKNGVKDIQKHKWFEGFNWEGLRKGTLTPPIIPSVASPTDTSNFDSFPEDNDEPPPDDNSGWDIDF

[4] = molecular target: Cyclin-dependent kinase 2 (Homo sapiens) (UniProt P24941); assay: Inhibition of human full length CDK2 expressed in baculovirus assessed as substrate phosphorylation using fluorescence-labelled peptides as substrate at 420 uM after 90 mins by microfluidic peptide phosphorylation assay
Homo sapiens = species on record: Homo sapiens; assay: Inhibition of human P70S6K catalytic domain expressed in baculovirus assessed as substrate phosphorylation using fluorescence-labelled peptides as substrate at 0.2 uM after 90 mins by microfluidic peptide phosphorylation assay
[5] = molecular target: Dual specificity tyrosine-phosphorylation-regulated kinase 1A (Rattus norvegicus) (UniProt Q63470); assay: Inhibition of rat full length DYRK1a expressed in Escherichia coli cell assessed as substrate phosphorylation using fluorescence-labelled peptides as substrate at 9 uM after 90 mins by microfluidic peptide phosphorylation assay
[6] = molecular target: T2, Aurora kinase C (Homo sapiens) (UniProt Q9UQB9); assay: Inhibition of human full length AurC expressed in baculovirus assessed as substrate phosphorylation using fluorescence-labelled peptides as substrate at 70 uM after 90 mins by microfluidic peptide phosphorylation assay
T2 sequence (whole entry): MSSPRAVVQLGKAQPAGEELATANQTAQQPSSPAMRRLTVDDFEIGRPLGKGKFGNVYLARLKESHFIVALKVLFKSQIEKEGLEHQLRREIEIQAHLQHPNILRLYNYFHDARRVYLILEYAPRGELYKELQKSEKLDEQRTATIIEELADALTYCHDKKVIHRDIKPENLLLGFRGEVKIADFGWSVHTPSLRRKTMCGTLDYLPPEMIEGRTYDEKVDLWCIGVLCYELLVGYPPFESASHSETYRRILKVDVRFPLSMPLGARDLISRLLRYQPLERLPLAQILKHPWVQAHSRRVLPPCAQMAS

[7] = molecular target: Tyrosine-protein kinase Fer (Homo sapiens) (UniProt P16591); assay: Inhibition of human FER catalytic domain expressed in baculovirus assessed as substrate phosphorylation using fluorescence-labelled peptides as substrate at 95 uM after 90 mins by microfluidic peptide phosphorylation assay
Tyrosine-protein kinase Fer (Homo sapiens), sequence (P16591 whole entry, looked up, the tested form may be a part): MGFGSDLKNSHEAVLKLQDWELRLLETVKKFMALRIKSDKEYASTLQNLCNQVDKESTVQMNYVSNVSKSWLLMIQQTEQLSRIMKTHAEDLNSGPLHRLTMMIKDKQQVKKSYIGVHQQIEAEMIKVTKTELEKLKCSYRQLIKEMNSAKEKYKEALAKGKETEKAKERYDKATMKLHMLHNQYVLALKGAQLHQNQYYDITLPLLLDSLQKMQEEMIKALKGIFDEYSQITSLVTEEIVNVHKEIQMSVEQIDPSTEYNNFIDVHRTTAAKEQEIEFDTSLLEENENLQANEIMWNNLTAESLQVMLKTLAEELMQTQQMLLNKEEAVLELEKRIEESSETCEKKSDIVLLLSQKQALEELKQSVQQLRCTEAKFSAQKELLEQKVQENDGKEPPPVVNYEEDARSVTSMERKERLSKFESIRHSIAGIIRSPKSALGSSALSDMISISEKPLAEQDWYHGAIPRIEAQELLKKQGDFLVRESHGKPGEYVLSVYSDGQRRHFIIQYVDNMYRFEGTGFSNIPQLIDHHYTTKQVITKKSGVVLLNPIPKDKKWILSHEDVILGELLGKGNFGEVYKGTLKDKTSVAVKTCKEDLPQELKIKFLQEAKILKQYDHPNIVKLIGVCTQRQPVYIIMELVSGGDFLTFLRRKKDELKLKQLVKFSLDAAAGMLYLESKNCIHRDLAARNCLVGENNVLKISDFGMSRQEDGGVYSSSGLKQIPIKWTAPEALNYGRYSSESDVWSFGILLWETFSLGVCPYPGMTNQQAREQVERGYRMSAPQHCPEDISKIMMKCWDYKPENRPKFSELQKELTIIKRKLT

[8] = molecular target: T3, Protein kinase C zeta type (Homo sapiens) (UniProt Q05513); assay: Inhibition of human full length PKC zeta expressed in baculovirus assessed as substrate phosphorylation using fluorescence-labelled peptides as substrate at 95 uM after 90 mins by microfluidic peptide phosphorylation assay
T3 sequence (whole entry): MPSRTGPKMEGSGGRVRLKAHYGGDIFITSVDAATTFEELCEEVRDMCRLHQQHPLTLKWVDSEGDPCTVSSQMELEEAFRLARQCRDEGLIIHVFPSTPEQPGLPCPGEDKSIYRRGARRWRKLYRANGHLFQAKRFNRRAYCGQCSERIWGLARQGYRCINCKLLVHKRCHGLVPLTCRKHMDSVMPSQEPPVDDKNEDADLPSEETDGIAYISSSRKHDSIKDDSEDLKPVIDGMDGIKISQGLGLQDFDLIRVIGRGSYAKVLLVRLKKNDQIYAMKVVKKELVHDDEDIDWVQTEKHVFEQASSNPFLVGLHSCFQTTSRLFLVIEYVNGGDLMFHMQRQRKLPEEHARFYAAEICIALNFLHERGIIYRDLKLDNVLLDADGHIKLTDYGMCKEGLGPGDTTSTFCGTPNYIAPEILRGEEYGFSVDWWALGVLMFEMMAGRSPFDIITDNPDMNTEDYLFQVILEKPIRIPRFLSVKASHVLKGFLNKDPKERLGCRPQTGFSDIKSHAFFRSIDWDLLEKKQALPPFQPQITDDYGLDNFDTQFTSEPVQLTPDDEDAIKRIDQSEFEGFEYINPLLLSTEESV

[9] = molecular target: Insulin-like growth factor 1 receptor (Homo sapiens) (UniProt P08069); assay: Inhibition of human IGF1R catalytic domain expressed in baculovirus assessed as substrate phosphorylation using fluorescence-labelled peptides as substrate at 8 uM after 90 mins by microfluidic peptide phosphorylation assay
[10] = test system: Fibroblast growth factor receptor 2 (Homo sapiens), P21802 [N549H]; assay: Inhibition of human FGFR2 N549H mutant catalytic domain expressed in baculovirus assessed as substrate phosphorylation using fluorescence-labelled peptides as substrate at 2 uM after 90 mins by microfluidic peptide phosphorylation assay
Fibroblast growth factor receptor 2 (Homo sapiens), P21802 [N549H], sequence (P21802 whole entry N549H, the tested form may be a part): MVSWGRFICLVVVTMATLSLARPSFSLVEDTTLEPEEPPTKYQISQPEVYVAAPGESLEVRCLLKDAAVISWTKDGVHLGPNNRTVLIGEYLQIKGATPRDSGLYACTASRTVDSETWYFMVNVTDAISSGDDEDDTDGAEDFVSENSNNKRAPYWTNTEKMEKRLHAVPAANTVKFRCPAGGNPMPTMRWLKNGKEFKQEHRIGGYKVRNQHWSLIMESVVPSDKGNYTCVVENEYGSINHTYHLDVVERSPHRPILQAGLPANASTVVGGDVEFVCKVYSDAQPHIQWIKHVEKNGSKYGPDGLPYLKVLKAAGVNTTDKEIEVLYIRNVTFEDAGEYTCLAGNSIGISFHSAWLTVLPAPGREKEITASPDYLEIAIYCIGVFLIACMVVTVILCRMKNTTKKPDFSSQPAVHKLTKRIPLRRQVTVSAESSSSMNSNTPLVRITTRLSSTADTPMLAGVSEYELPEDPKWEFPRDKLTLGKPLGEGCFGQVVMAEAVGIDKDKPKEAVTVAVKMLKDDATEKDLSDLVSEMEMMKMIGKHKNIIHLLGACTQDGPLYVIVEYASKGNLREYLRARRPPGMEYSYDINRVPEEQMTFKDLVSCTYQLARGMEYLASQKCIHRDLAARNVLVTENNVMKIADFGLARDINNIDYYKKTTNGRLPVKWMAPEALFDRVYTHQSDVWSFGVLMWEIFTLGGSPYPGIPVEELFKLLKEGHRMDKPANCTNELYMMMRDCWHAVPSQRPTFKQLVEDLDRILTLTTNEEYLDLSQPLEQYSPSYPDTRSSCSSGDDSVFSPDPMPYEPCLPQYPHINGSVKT

**Q.** For `NC1(Cc2ccc(Cl)cc2)CCN(c2ncnc3[nH]ccc23)CC1`, which inhibition [1] is on record?
**A.** 0%

**Q.** And the inhibition [2]?
**A.** 0%

**Q.** `c1nc(N2CCOCC2)c2nc[nH]c2n1` was tested. Which inhibition [3] did it give?
**A.** 98%

**Q.** What about the inhibition [4] of the same compound?
**A.** 75%

**Q.** Which inhibition (Homo sapiens) does the source give for `Clc1ccc(C2(c3ccc(-c4ncnc5[nH]cnc45)cc3)CCNCC2)cc1` here?
**A.** 87.5%

**Q.** `NCC1CN(c2ncnc3[nH]c4cnccc4c23)CCO1` (stereo unspecified) was tested. Which inhibition [5] did it give?
**A.** 7.5%

**Q.** `CNCc1ccc(-c2ncnc3[nH]cnc23)cc1` was tested. Which inhibition [6] did it give?
**A.** 73%

**Q.** Which results are given for `NCCc1ccc(-c2ncnc3[nH]cnc23)cc1`?
**A.** inhibition [7]: 28%; inhibition [8]: 0%

**Q.** With `NCC1CCN(c2ncnc3[nH]ccc23)CC1` as the compound, how does the inhibition [9] read?
**A.** 30%

**Q.** `NC1CCN(c2ncnc3[nH]ccc23)CC1` was tested. Which inhibition [10] did it give?
**A.** 1%

Source: ChEMBL document CHEMBL3132769, “Fragment growing to retain or alter the selectivity of anchored kinase hinge-binding fragments” (Medchemcomm, 2014)
